The source of these data is patent publication US11952388B2, “Crystal form of tri-cycle compound and application thereof” (FUJIAN AKEYLINK BIOTECHNOLOGY CO., LTD., priority 2018, dated 2024).

For one data set, the system named is HBV. The experiment in a line: HBV in vitro test: quantitative qPCR of HBV DNA in HepG2.2.15 cells. It counts as cell-based. As to the method:
The HBV DNA content in HepG2.2.15 cells was detected by Real-time quantitative qPCR, and EC50 value of compounds was used as an indicator to evaluate inhibitory effect of compounds on HBV.
2.1 Cell Line: HepG2.2.15 Cells
3.1 HepG2.2.15 cells (4×10^4 cells/well) were bedded to a 96-well plate and cultured overnight at 37° C., 5% CO2.
3.2 On the day 2, the compound was diluted to a total of 8 concentrations, with a 3-fold gradient dilution. Different concentrations of compounds were added to the culture wells in duplicate. The final concentration of DMSO in the culture medium was 1%. 1 μM GLS4 was used as a 100% inhibition control; 1% DMSO was used as a 0% inhibition control.
3.3 On the day 5, the culture medium was replaced with fresh culture medium containing the compound.
3.4 On the day 8, the culture medium in the culture wells was collected, and DNA was extracted with the high-throughput DNA purification kit (Qiagen-51162). Refer product manual for specific steps.
3.6 15 μL of reaction mixture was added to each well of a 96-well PCR plate, and then 10 μL of sample DNA or HBV DNA standard was added to each well.
3.7 The reaction settings for PCR are: heating at 95° C. for 10 minutes; then denaturation at 95° C. for 15 seconds, and extension at 60° C. for 1 minute, a total of 40 cycles. […]
For orientation: In qPCR the cycle at which signal appears reflects the starting amount.

Data set [1] deals with proteins in CD-1 mouse plasma. The experiment in a line: Plasma protein binding rate (equilibrium dialysis). It counts as in vitro ADME, CD-1 mouse (mus musculus). On the procedure: Objectives of Experiment: to determine the binding rate of test compound to proteins in human and CD-1 mouse plasma
Experimental operation: 796 μL of blank plasma was taken from human and CD-1 mouse, and 4 μL of test compound working solution (400 μM) or warfarin working solution (400 μM) was added to make the final concentrations of both test compound and warfarin in the plasma sample 2 μM. The sample was mixed thoroughly. The final concentration of DMSO in the organic phase was 0.5%; 50 μt of plasma samples of test compound and warfarin was pipetted into the sample receiving plate (in triplicate), and immediately the corresponding volume of blank plasma or buffer was added to make the final volume of each sample 100 μL and the volume ratio of plasma:dialysis buffer 1:1. Then 400 μL of stop solution is added to these samples. These samples would be used as TO samples for determination of recovery and stability. […] All samples were analyzed by LC/MS/MS after protein precipitation, and the protein binding rate and recovery rate was calculated with the formula: % Unbound (unbound rate)=100*FC/TC, % Bound (bound rate)=100-% Unbound, % Recovery (recovery rate)=100*(FC+TC)/T0.

Data set [2] can be described thus: Pharmacokinetics of oral administration and intravenous injection in Beagle. It counts as in vivo, beagle dogs. As to the method:
3. Study on the Pharmacokinetics of Oral Administration and Intravenous Injection of the Compound Represented by Formula (I) in Beagle The compound represented by formula (I) was mixed with 5% DMSO/55% polyethylene glycol 400/40% aqueous solution, vortexed and sonicated to obtain an approximately clear solution of 1 mg/mL, which was then filtered by a microporous membrane for later use. Male beagle dogs weighed about 10 kg were selected and the candidate compound solution was administered intravenously at a dose of 1 mg/kg. The compound represented by formula (I) was mixed with 10% solutol aqueous solution, vortexed and sonicated to obtain an approximately clear solution of 2 mg/mL, which was then filtered through a microporous membrane for later use. Male beagle dogs weighed about 10 kg were selected and the candidate compound solution was orally administered at a dose of 10 mg/kg. Whole blood was collected at a certain period of time to prepare plasma, drug concentration was analyzed by LC-MS/MS method, and pharmacokinetic parameters was calculated by Phoenix WinNonlin software (Pharsight, USA). Note: T1/2 means half-life; Vdss means apparent volume of distribution; Cl means clearance rate; AUC0_last means area below the drug-time curve; Tmax means peak time; Cmax means peak concentration; F % means oral bioavailability; iv means intravenous injection; PO means oral administration; mpk means mg/kg.

The mark [3] stands for this setting: male, beagle, dog, plasma, 1 mg/kg, Dogs, iv 1 mpk.
Where [4] appears, read: male, beagle, dog, plasma, 10 mg/kg, Dogs, po 10 mpk.

Like-named read-outs stand apart in the source and are kept apart here.

What is called half-life is the time needed for the level to fall by half in the phase considered. Usually Cmax stands for the maximum level reached in the sampled fluid or tissue. What is called Tmax is the time from dosing to the highest level. For the compound `Cc1cc2n(c1)S(=O)(=O)c1ccc(C(=O)NCC[C@H]3COCCO3)cc1NC2=O` [compound represented by formula (I)], the “inhibitory effect on HBV (conclusion in words)” value in the data set on HBV is on record as “significant inhibitory effect”. For the same compound, the EC50 with HBV (Hepatitis B virus, HBV DNA by qPCR, read-out: 50% inhibitory concentration (EC50) value of HBV) was 8.16 nM. The “binding rate to plasma proteins (conclusion in words)” value in data set [1] is given as “lower binding rate”. For the same compound, in data set [1] (2 μM), the “Binding rate of plasma protein” value came out at 94%. Moreover, in data set [2] (Beagle), the “pharmacokinetics (conclusion in words)” value was “good single or partial index of pharmacokinetics”. In data set [2] (setting [3]), the clearance worked out at 15.6 mL/min/kg and the half-life is 172 min. For the same compound, in data set [2] (male, beagle, dog, plasma, 1 mg/kg, Dogs, iv 1 mpk, read-out: AUC0-last), the AUC(0-t) worked out at 2.68 µM·h. The Vd in data set [2] (male, beagle, dog, plasma, 1 mg/kg, Dogs, iv 1 mpk, read-out: Vdss) turned out to be 2.95 L/kg. In data set [2] (setting [4]), the Cmax came out at 5.85 µM, the Tmax was 1.67 h and the bioavailability came out at 126%. In addition, the AUC(0-t) in data set [2] (male, beagle, dog, plasma, 10 mg/kg, Dogs, po 10 mpk, read-out: AUC0-24h) worked out at 33.2 µM·h.
